The text below walks through data of patent publication US20260315483A1, “HETEROCYCLIC COMPOUNDS AS TRIGGERING RECEPTOR EXPRESSED ON MYELOID CELLS 2 AGONISTS AND METHODS OF USE” (VIGIL NEUROSCIENCE, INC., priority 2023, published 2026).

T1 sequence (Q9NZC2 19-230): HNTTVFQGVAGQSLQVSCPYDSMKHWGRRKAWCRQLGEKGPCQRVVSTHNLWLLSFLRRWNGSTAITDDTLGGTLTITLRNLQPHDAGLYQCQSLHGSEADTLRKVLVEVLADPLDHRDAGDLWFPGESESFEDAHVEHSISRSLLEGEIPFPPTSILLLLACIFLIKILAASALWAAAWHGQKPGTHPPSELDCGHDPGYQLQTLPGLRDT
T1 sequence (O43914 22-113 partner): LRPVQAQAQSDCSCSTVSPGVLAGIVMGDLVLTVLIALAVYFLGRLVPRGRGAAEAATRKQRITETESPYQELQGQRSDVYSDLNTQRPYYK

This assay concerns the target T1, human TREM2 (Homo sapiens, UniProt Q9NZC2).
T1 construct: expressed in transfected cells; host or cells: HEK293T-hTREM2 cells (HEK cell line expressing human TREM2 and DAP12)
Description: In vitro measurement of TREM2 activity using cellular phosphorylation of spleen tyrosine kinase (Syk), AlphaLisa, HEK293T-hTREM2 cells. Format: cell-based. The following applies: HEK293T cells expressing human TREM2 and DAP12, 45 min at room temperature, Table D-2. As for the experimental part:
In Vitro Measurement of Triggering Receptor Expressed on Myeloid Cells 2 Activity Using Cellular Phosphorylation of Spleen Tyrosine Kinase (“Syk”) Assays
Measurement of TREM2 agonist potency was done using a HEK cell line expressing human TREM2 and DAP12 (HEK293T-hTREM2 cells). Binding of small molecules to, and activation of, TREM2 increases the phosphorylation of Syk. The resultant levels of Syk phosphorylation are measured using a commercial AlphaLisa reagent kit. To perform the assay, HEK-hTREM2 cells were plated at 14,000 cells per well in a 384 well plate, in 25 μL of complete growth media and incubated at 37° C., 5% CO2 for 20-24 hours.
Prior to the assay, test compounds were diluted in the 384 well plates in assay buffer and allowed to equilibrate for 30 minutes. Growth media was removed from cell plates by inversion on blotting paper, and 25 μL of test articles in assay buffer was added to cells. Cells were incubated for 45 minutes at room temperature. After 45 minutes, assay buffer was removed and 10 μL of lysis buffer was added. Plates were shaken for 20 minutes at 350 RPM at room temperature. After complete lysis, AlphaLisa reagents were added to the lysate, and fluourescence intensity was measured using a Perkin Elmer Envision plate reader. Intensities were used to generate a standard curve, and % activation was calculated. Curve fitting was performed using Prism v9 software, log(agonist) vs response—variable slope (four parameters), and EC50s were calculated from the curve fit.
The results presented in Tables D and D-2 have been generated with the in vitro assay described above. This assay may be used to test any of the compounds described herein to assess and characterize a compound's ability to act as an agonist of TREM2.
In general terms: In Alpha technology, singlet oxygen from a donor bead excites a nearby acceptor bead.
By EC50 is commonly meant the midpoint of the concentration-response curve. A higher EC50 goes with weaker potency. `C[C@@H]1CN(c2cc3c(c(C4CC(C(F)(F)F)C4)n2)CN(C)C3=O)C[C@H](c2cnn(C3CC3)c2)O1` (some centres unmarked) [compound 220] gave an EC50 of 50 to 500 nM.

`C[C@@H]1CN(c2cc3c(c(-c4ccc(C(F)(F)F)cc4F)n2)CN(C)C3=O)C[C@H](c2cnn(C3CC3)c2)O1` [compound 221] registered a concentration giving a half-maximal response (EC50) of at most 50 nM.

For the compound `CN1Cc2c(cc(C3CCO[C@@H](c4cnn(C5CC5)c4)C3)nc2-c2ccc(C(F)(F)F)cc2F)C1=O` (some centres unmarked) [compound 222], the EC50 lay within 50 to 500 nM.

`CN1Cc2c(cc([C@@H]3CCO[C@@H](c4cnn(C5CC5)c4)C3)nc2-c2ccc(C(F)(F)F)cc2F)C1=O` [compound 223] came in with an EC50 of 50 to 500 nM.

As for `CN1Cc2c(cc([C@H]3CCO[C@@H](c4cnn(C5CC5)c4)C3)nc2-c2ccc(C(F)(F)F)cc2F)C1=O` [compound 224], the EC50 was 50 to 500 nM.

Compound `CN1Cc2c(cc(C3CCO[C@@H](c4cnn(C5CC5)c4)C3)nc2C2CC(C(F)(F)F)C2)C1=O` (some centres unmarked) [compound 225] returned a concentration for a half-maximal effect (EC50) of 50 to 500 nM.

Consider `CN1Cc2c(cc([C@H]3CCO[C@@H](c4cnn(C5CC5)c4)C3)nc2C23CC(C(F)(F)F)(C2)C3)C1=O` [compound 226], for which the EC50 lay in the range of 50 to 500 nM.

`C[C@@H]1CN(c2cc3c(c(-c4ccc(C(F)(F)F)cc4F)n2)CN(c2ccn(C)n2)C3=O)C[C@H](c2cnn(C3CC3)c2)O1` [compound 228, 6-((2S,6R)-2-(1-cyclopropyl-1H-pyrazol-4-yl)-6-methylmorpholino)-4-(2-fluoro-4-(trifluoromethyl)phenyl)-2-(1-methyl-1H-pyrazol-3-yl)-2,3-dihydro-1H-pyrrolo[3,4-c]pyridin-1-one]: the EC50 is at most 50 nM.
